One test concerns the target T1, CYP17 (human testicular microsome) (Homo sapiens, UniProt P05093).
T1 construct: using microsomal fraction from human testis (Celsis Cat #S00110) as the enzyme source; tissue Celsis S00110; host or cells: human testis microsomal fraction
T1 sequence (P05093 1-508): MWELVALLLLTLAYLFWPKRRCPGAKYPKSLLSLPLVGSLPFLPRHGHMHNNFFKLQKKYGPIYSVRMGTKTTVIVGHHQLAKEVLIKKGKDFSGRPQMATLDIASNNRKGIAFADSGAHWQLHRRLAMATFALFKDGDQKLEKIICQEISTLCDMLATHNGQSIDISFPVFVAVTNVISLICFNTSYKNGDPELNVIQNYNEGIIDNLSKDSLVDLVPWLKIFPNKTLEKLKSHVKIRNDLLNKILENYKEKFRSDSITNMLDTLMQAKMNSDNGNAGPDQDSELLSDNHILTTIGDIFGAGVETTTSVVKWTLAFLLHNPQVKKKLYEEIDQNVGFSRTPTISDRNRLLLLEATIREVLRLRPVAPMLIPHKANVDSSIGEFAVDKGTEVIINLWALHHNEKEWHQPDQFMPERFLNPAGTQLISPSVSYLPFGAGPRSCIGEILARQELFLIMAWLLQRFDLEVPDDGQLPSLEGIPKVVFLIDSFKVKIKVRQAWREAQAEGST
Put plainly: CYP17 enzymatic assay (% inhibition at 10 nM), version 1 (Biological Example 5). The test is classed as biochemical. The conditions noted are these: 10 nM compound, DHEA by ELISA, read-out: Biological Example No. 5: CYP17 percent inhibition at 10 nM (version 1).
Regarding `Cc1cncc(C2=CC[C@H]3[C@@H]4CCN5CCCCC[C@]5(C)[C@H]4CC[C@]23C)c1` [Compound 45, (11aR,13aS)-11a,13a-dimethyl-1-(5-methylpyridin-3-yl)-3a,3b,4,5,7,8,9,10,11,11a,11b,12,13,13a-tetradecahydro-3H-azepino[2,1-a]cyclopenta[f]isoquinoline], the inhibition at 0.01 µM fell in the range of 1 to 50%.

As for `COc1cncc(C2=CC[C@H]3[C@@H]4CCN5CCCCC[C@]5(C)[C@H]4CC[C@]23C)c1` [Compound 47, (11aR,13aS)-1-(5-methoxypyridin-3-yl)-11a,13a-dimethyl-3a,3b,4,5,7,8,9,10,11,11a,11b,12,13,13a-tetradecahydro-3H-azepino[2,1-a]cyclopenta[f]isoquinoline], the inhibition at 0.01 µM is 1 to 50%.

Consider `CCc1cncc(C2=CC[C@H]3[C@@H]4CC=C5CCCC[C@]5(C)[C@H]4CC[C@]23C)c1` [Compound 64, 3-((10R,13S)-10,13-dimethyl-2,3,4,7,8,9,10,11,12,13,14,15-dodecahydro-1H-cyclopenta[a]phenanthren-17-yl)-5-ethylpyridine], for which the inhibition at 0.01 µM is 1 to 50%.

As to `Cc1cncc(C2=CC[C@H]3[C@@H]4CC=C5CCCC[C@]5(C)[C@H]4CC[C@]23C)c1` [Compound 65, 3-((10R,13S)-10,13-dimethyl-2,3,4,7,8,9,10,11,12,13,14,15-dodecahydro-1H-cyclopenta[a]phenanthren-17-yl)-5-methylpyridme], the inhibition at 0.01 µM lay in the range of 50 to 80%.

In the case of `COc1cncc(C2=CC[C@H]3[C@@H]4CC=C5CCCC[C@]5(C)[C@H]4CC[C@]23C)c1` [Compound 66, 3-((10R,13S)-10,13-dimethyl-2,3,4,7,8,9,10,11,12,13,14,15-dodecahydro-1H-cyclopenta[a]phenanthren-17-yl)-5-methoxypyridine], the inhibition at 0.01 µM was 50 to 80%.

Regarding `C[C@]12CCCCC[C@@H]1CC[C@@H]1[C@@H]2CC[C@]2(C)C(c3cccnc3)=CC[C@@H]12` [Compound 90, 3-((3aS,3bR,5aR,10aS,10bS,12aS)-10a,12a-dimethyl-3,3a,3b,4,5,5a,6,7,8,9,10,10a,10b,11,12,12a-hexadecahydrocyclohepta[a]cyclopenta[f]naphthalen-1-yl)pyridine], the inhibition at 0.01 µM was in the range of 1 to 50%.

Regarding `Cc1cncc(C2=CC[C@H]3[C@@H]4CC[C@H]5CCCCC[C@]5(C)[C@H]4CC[C@]23C)c1` [Compound 91, 3-((3aS,3bR,5aR,10aS,10bS,12aS)-10a,12a-dimethyl-3,3a,3b,4,5,5a,6,7,8,9,10,10a,10b,11,12,12a-hexadecahydrocyclohepta[a]cyclopenta[f]naphthalen-1-yl)-5-methylpyridine], the inhibition at 0.01 µM was 1 to 50%.

Regarding `COc1cncc(C2=CC[C@H]3[C@@H]4CC[C@H]5CCCCC[C@]5(C)[C@H]4CC[C@]23C)c1` [Compound 92, 3-((3aS,3bR,5aR,10aS,10bS,12aS)-10a,12a-dimethyl-3,3a,3b,4,5,5a,6,7,8,9,10,10a,10b,11,12,12a-hexadecahydrocyclohepta[a]cyclopenta[f]naphthalen-1-yl)-5-methoxypyridine], the inhibition at 0.01 µM was 50 to 80%.

Take `CCc1cncc(C2=CC[C@H]3[C@@H]4CC[C@H]5CCCCC[C@]5(C)[C@H]4CC[C@]23C)c1` [Compound 93, 3-((3aS,3bR,5aR,10aS,10bS,12aS)-10a,12a-dimethyl-3,3a,3b,4,5,5a,6,7,8,9,10,10a,10b,11,12,12a-hexadecahydrocyclohepta[a]cyclopenta[f]naphthalen-1-yl)-5-ethylpyridine]: the inhibition at 0.01 µM lay within 1 to 50%.

With `CCOc1cncc(C2=CC[C@H]3[C@@H]4CC[C@H]5CCCCC[C@]5(C)[C@H]4CC[C@]23C)c1` [Compound 94, 3-((3aS,3bR,5aR,10aS,10bS,12aS)-10a,12a-dimethyl-3,3a,3b,4,5,5a,6,7,8,9,10,10a,10b,11,12,12a-hexadecahydrocyclohepta[a]cyclopenta[f]naphthalen-1-yl)-5-ethoxypyridine], the inhibition at 0.01 µM lay in the range of 1 to 50%.

As to `Cc1ccncc1C1=CC[C@H]2[C@@H]3CC[C@H]4CCCCC[C@]4(C)[C@H]3CC[C@]12C` [Compound 95, 3-((3aS,3bR,5aR,10aS,10bS,12aS)-10a,12a-dimethyl-3,3a,3b,4,5,5a,6,7,8,9,10,10a,10b,11,12,12a-hexadecahydrocyclohepta[a]cyclopenta[f]naphthalen-1-yl)-4-methylpyridine], the inhibition at 0.01 µM lay in the range of 1 to 50%.

With `C[C@]12CCCCC[C@@H]1CC[C@@H]1[C@@H]2CC[C@]2(C)C(c3cnccc3Cl)=CC[C@@H]12` [Compound 96, 4-chloro-3-((3aS,3bR,5aR,10aS,10bS,12aS)-10a,12a-dimethyl-3,3a,3b,4,5,5a,6,7,8,9,10,10a,10b,11,12,12a-hexadecahydrocyclohepta[a]cyclopenta[f]naphthalen-1-yl)pyridine], the inhibition at 0.01 µM is 1 to 50%.

For `CCOc1cncc(C2=CC[C@H]3[C@@H]4CCC5N(C)C(=O)COC[C@]5(C)[C@H]4CC[C@]23C)c1` (stereo partly drawn) [Compound 99, (5aR,5bS,7aS,10aS,10bS)-8-(5-ethoxypyridin-3-yl)-1,5a,7a-trimethyl-5,5a,5b,6,7,7a,10,10a,10b,11,12,12a-dodecahydro-1H-cyclopenta[5,6]naphtho[2,1-e][1,4]oxazepin-2(3H)-one], the inhibition at 0.01 µM was 1 to 50%.

For `C[C@]12CCNC(=O)CC[C@@H]1CC[C@@H]1[C@@H]2CC[C@]2(C)C(c3cccnc3)=CC[C@@H]12` [Compound 101, (6aS,6bS,8aS,11aS,11bR,13a5)-6a,8a-dimethyl-9-(pyridin-3-yl)-4,5,6,6a,6b,7,8,8a,11,11a,11b,12,13,13a-tetradecahydro-1H-cyclopenta[5,6]naphtho[1,2-d]azocin-3(2H)-one], the inhibition at 0.01 µM lay within 50 to 80%.

As for `C[C@]12CC(=O)C[C@@H]1CC[C@@H]1[C@@H]2CC[C@]2(C)C(n3ccnn3)=CC[C@@H]12` [Compound 110, (3aS,5aS)-3a,5a-dimethyl-6-(1H-1,2,3-triazol-1-yl)-3,3a,3b,4,5,5a,8,8a,8b,9,10,10a-dodecahydrodicyclopenta[a,f]naphthalen-2(1H)-one], the inhibition at 0.01 µM was 1 to 50%.

Regarding `CCOc1cncc(C2=CC[C@H]3[C@@H]4CC[C@H]5CCOCC[C@]5(C)[C@H]4CC[C@]23C)c1` [Compound 124, 3-((5aS,5bS,7aS,10aS,10bR,12aS)-5a,7a-dimethyl-2,4,5,5a,5b,6,7,7a,10,10a,10b,11,12,12a-tetradecahydro-1H-cyclopenta[5,6]naphtho[1,2-d]oxepin-8-yl)-5-ethoxypyridine], the inhibition at 0.01 µM lay in the range of 50 to 80%.

Take `C[C@]12CCC(=O)NCC1CCC1C2CC[C@]2(C)C(n3ccnc3)=CCC12` (stereo partly drawn) [Compound 136, (5aR,7aS)-8-(1H-imidazol-1-yl)-5a,7a-dimethyl-1,2,5,5a,5b,6,7,7a,10,10a,10b,11,12,12a-tetradecahydrocyclopenta[5,6]naphtho[2,1-c]azepin-3(4H)-one]: the inhibition at 0.01 µM was 50 to 80%.

The next test deals with T1, CYP17 (human testicular microsome). Put plainly: CYP17 enzymatic assay (% inhibition at 1 nM) (Biological Example 12). The format is biochemical. The conditions noted are these: compound at 1 nM, read-out: CYP17 enzymatic assay % inhibition at 1 nM (Biological Example No. 12).
As to `Cc1cncc(C2=CC=C3[C@@H]4CCC5CC(=O)NCC[C@]5(C)[C@H]4CC[C@]23C)c1` (stereo partly drawn) [Compound 460, (5aS,5bS,7aS,10bR)-5a,7a-dimethyl-8-(5-methylpyridin-3-yl)-3,4,5,5a,5b,6,7,7a,10b,11,12,12a-dodecahydrocyclopenta[5,6]naphtho[1,2-d]azepin-2(1H)-one], the inhibition at 0.001 µM is above 50%.

For another test the target is unchanged. Put plainly: CYP17 enzymatic assay (IC50) (Biological Example 4). The test is classed as biochemical. The following applies: human testicular microsome; read-out: CYP17 enzymatic assay IC50 (Biological Example No. 4).
With `Cc1cncc(C2=CC=C3[C@@H]4CCC5CC(=O)NCC[C@]5(C)[C@H]4CC[C@]23C)c1` (stereo partly drawn) [Compound 460, (5aS,5bS,7aS,10bR)-5a,7a-dimethyl-8-(5-methylpyridin-3-yl)-3,4,5,5a,5b,6,7,7a,10b,11,12,12a-dodecahydrocyclopenta[5,6]naphtho[1,2-d]azepin-2(1H)-one], the IC50 is below 11 nM.

Source of the values: US20130252930A1 (BIOMARIN PHARMACEUTICAL INC., priority 2010, published 2013).
